Columns and labels:
Format in all cases: cell-based, human
[1] = test system: AP1 activation in MCF-7 breast cancer cells; assay: ELISA-based transbinding AP1 assay in breast cancer cells; settings: 5.5 mM sugar
Protocol: FIG. 12 depicts an increase in AP1 activation in fructose-treated cells in accordance with an embodiment of the present invention. MCF-7 breast cancer cells were incubated in 2 mM glucose, or 5 mM glucose or fructose for 24 h, after which nuclear extracts were incubated with a biotinylated AP-1 probe in binding buffer. AP-1/AP1 probe complexes were next conjugated to a streptavidin-coated assay plate and detected using an AP-1 specific antibody, followed by binding of a horseradish-peroxidase conjugated secondary antibody, and detection by a colorimetric reagent. *, p<0.001.
Although several signal transduction pathways are likely involved in the fructose-mediated enhanced breast cancer growth and while not wishing to be bound by any particular theory, the inventors believe that the MAP-kinase pathway is involved. The inventors have used Western blot analysis to examine the MAPK pathway in breast cancer cells incubated in 2 mM glucose, 5.5 mM glucose, and 5.5 mM fructose for 48 hours. […] Activation of MEK, and subsequently ERK results in phosphorylation of p90^Rsk, which leads to transcriptional activation of CREB and AP1, which bind to cAMP or AP1 response elements respectively, activating gene transcription and promoting cellular growth.

[2] = test system: primary cultures of fresh surgically resected pancreatic cancers; assay: BRDU uptake in primary cultures of resected pancreatic cancers; settings: all 5 primary pancreatic cancers, 5.5 mM, 72 h
Protocol: FIG. 18 depicts BRDU incorporation by pancreatic cells in accordance with an embodiment of the present invention. Freshly resected pancreatic cancers were mechanically, and enzymatically dispersed, and cells were pre-incubated in 2 mM glucose prior to treatment with 5.5 mM glucose or fructose for 72 h. BRDU (10 μM) was added to the medium at 48 h, and BRDU-uptake quantified at 72 h.
As immortalized cell-lines, such as PANC-1 pancreatic cancer cells, can become dedifferentiated after repeated passages, and in order to translate these findings in the PANC-1 cells to patients with pancreatic cancer, the inventors also examined proliferative rates in primary cultures of fresh surgically resected pancreatic cancers, following incubation in 2 mM, and 5.5 mM glucose or 5.5 mM fructose. Briefly, after mechanical and enzymatic (trypsin and DNAse) disaggregation, aliquots of tumor cells were seeded in 6-well plates, and incubated in standard DMEM media with 10% fetal bovine serum, and 2 mM glucose, 5.5 mM glucose, or 5.5 mM fructose for 72 h. As before in the PANC-1 experiments, BRDU (10 μM) was added in the […] of incubation in the sugars, following which BRDU-uptake was quantified.

GLUT-5 mRNA = GLUT-5 mRNA by real-time RT-PCR in PANC-1 cells
Protocol: FIG. 22 depicts […] mRNA levels in pancreatic cancer cells in accordance with an embodiment of the present invention. Quantitative real-time RT-PCR was used to measure GLUT-5 mRNA levels in pancreatic cancer cells (PANC-1), following culture in 2 mM glucose, 5.5 mM glucose, or 5.5 mM fructose for 4 h and 24 h.
Brit J Biomed Sci 56(4): 285-292, 1999; Rogers S, Docherty S E, Slavin J L, Henderson and Best J D. Differential expression of GLUT12 in breast cancer and normal breast tissue. Cancer Letters 193(2): 225-233, 2003). […] Teal-time RT-PCR was used to measure GLUT-5 mRNA expression following 2 mM, and 5.5 mM glucose-, and 5.5 mM fructose-treatment for 4 h, and 24 h respectively. GLUT-5 mRNA was expressed as the fold-change relative to GLUT-5 mRNA levels in 2 mM glucose-treated cells. As depicted in FIG. 22, at 4 h, GLUT-5 mRNA levels were low in both the 5.5 mM glucose-, and fructose-treated PANC-1 cells. […] This agrees with other studies which have reported fructose-induced GLUT-5 mRNA expression in colon cancer (Gouyon F, Onesto C, Dalet V, Pages G, Leturque A, and Brot-Laroche E. Fructose modulates GLUT5 mRNA stability in differentiated Caco-2 cells: Role of cAMP-signalling pathway and PABP (polyadenylated-binding protein)-interacting protein (Paip) 2. J Biochem 375:167-174, 2003).

O=C(CO)[C@@H](O)[C@H](O)[C@H](O)CO [fructose]
increase in AP1 activation [1]: 3 fold
proliferative rates (BRDU-uptake) in fructose compared to glucose [2]: higher proliferative rates
GLUT-5 mRNA levels higher than in 2 mM glucose-treated cells (GLUT-5 mRNA; PANC-1, 5.5 mM fructose, 24 h): 1.5 fold
GLUT-5 mRNA levels higher than in 5.5 mM glucose-treated cells (GLUT-5 mRNA; PANC-1, 5.5 mM fructose, 24 h): 1.75 fold
GLUT-5 mRNA levels (GLUT-5 mRNA; PANC-1, 5.5 mM sugar, 4 h): low

Reference: patent US20090232735A1, “USE OF FRUCTOSE-BASED THERAPIES FOR THE TREATMENT OF CANCER” (CEDARS-SINAI MEDICAL CENTER, priority 2005, published 2009)
